Patent US6399335B1, “γ-phosphoester nucleoside triphosphates” (Advanced Research and Technology Institute, Inc., priority 1999, dated 2002)

Experiments:
[1] = Stability of PNP-NTPs in plasma (PNP release, absorbance at 405 nm)
From the text: (§1) To test the effect of more complex, biologically relevant mixtures of enzymes on PNP-NTP stability, blood was collected and centrifuged to remove cells and collect the plasma.

[2] = molecular target: T7 DNA-dependent RNA polymerase (Escherichia phage T7, UniProt P00573); experiment: Colorimetric RNA synthesis / PNP release assay; format: biochemical
Description: Production of the PNP-NTP analogs. PNP-GTP and PNP-ATP are made in one high yielding reaction from commercially available starting materials (Scheme 1). When the nucleotide analog is used in RNA synthesis, the β and γ phosphates are released (as pyrophosphate) with the attached PNP. While this compound is colorless, the enzyme alkaline phosphatase rapidly hydrolyzes the pyrophosphates to release PNP, which, at the pH of the polymerase reaction, has a yellow color that absorbs maximally at […]. [drawing 4] […]
PNP-NTPs are useful as continuous reporters for RNA polymerase activity. To simplify the components, transcription reactions were performed in the presence of alkaline phosphatase, a homodeoxycytidylate template that directs the incorporation of only guanylates (named WV-15C), PNP-GTP, and T7 RNA polymerase. The use of homopolymers is well accepted in assessing the activities of viral RNA polymerases, including the HCV RdRp (Lohman et al., 1997. J. Virol., 71, 8416). The reaction was monitored in a spectrometer at […], the maximum absorbance for PNP. […] There were several negative controls in this experiment, all of which yielded minimal PNP release: 1) a reaction without T7 RNA polymerase; 2) a reaction that lacked the essential cofactor, Mg^2+; 3) a reaction that contained homothymidylate (WV-15T), rather than WV-15C. […]

[3] = molecular target: RdRp of bovine viral diarrhea virus (Bovine viral diarrhea virus, UniProt P19711); experiment: RNA synthesis assay; format: biochemical; details: compared with T7 polymerase and brome mosaic virus RdRp results
From the text: (§2) PNP-NTPs are useful reporters for the activities of a variety of RNA polymerases. […] PNP release was also observed during RNA synthesis by the SP6 RNA polymerase.

[4] = molecular target: brome mosaic virus RdRp (Brome mosaic virus, UniProt P03594); experiment: RNA synthesis assay; format: biochemical
From the text: as §2

[5] = system: alkaline phosphatase; details: incubation with alkaline phosphatase, without T7 RNA polymerase
From the text: as §1

Chain of T7 DNA-dependent RNA polymerase (P00573 whole entry): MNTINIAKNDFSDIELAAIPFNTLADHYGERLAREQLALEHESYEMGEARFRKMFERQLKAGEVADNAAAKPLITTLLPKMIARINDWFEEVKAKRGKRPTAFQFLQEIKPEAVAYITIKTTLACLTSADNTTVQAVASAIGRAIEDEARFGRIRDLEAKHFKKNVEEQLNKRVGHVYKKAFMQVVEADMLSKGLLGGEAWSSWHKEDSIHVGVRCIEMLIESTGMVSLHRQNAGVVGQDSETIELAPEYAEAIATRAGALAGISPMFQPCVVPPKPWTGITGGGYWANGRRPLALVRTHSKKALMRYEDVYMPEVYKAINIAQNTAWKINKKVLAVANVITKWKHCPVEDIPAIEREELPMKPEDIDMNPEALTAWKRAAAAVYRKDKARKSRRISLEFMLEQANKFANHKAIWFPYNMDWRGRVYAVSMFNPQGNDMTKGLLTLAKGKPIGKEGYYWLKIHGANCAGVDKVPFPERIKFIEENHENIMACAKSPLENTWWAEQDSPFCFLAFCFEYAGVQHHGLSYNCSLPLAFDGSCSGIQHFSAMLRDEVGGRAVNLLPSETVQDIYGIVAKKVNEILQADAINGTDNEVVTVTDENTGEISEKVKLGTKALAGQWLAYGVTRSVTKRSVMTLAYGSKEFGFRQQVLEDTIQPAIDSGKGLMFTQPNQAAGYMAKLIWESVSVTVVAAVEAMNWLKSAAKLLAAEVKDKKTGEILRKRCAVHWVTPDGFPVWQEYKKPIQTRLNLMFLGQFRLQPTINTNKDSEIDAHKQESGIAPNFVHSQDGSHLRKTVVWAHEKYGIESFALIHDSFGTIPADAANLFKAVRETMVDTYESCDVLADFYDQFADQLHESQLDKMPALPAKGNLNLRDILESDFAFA
Chain of brome mosaic virus RdRp (P03594 whole entry): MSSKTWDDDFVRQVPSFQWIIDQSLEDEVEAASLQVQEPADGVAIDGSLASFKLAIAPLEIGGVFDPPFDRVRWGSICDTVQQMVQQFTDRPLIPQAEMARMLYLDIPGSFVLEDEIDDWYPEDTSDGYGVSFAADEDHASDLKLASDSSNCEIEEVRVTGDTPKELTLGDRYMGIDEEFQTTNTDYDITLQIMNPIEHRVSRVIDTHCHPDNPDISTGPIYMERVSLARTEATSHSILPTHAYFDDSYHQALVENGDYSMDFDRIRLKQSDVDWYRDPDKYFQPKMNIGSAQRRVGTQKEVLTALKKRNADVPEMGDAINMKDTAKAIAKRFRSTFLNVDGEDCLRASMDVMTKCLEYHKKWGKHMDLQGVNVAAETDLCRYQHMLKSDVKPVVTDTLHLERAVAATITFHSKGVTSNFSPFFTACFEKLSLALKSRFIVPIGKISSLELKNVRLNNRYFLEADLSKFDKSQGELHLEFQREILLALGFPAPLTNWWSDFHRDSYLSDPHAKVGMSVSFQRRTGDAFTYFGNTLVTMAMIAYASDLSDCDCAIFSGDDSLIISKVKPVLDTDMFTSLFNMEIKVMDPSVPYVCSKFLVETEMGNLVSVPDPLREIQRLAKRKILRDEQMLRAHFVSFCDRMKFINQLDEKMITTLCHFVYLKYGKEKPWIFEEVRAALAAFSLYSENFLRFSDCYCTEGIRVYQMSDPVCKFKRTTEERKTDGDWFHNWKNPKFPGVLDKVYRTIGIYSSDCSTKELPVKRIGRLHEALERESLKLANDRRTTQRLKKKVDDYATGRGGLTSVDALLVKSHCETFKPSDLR
Chain of brome mosaic virus RdRp (P03588 whole entry, further chain): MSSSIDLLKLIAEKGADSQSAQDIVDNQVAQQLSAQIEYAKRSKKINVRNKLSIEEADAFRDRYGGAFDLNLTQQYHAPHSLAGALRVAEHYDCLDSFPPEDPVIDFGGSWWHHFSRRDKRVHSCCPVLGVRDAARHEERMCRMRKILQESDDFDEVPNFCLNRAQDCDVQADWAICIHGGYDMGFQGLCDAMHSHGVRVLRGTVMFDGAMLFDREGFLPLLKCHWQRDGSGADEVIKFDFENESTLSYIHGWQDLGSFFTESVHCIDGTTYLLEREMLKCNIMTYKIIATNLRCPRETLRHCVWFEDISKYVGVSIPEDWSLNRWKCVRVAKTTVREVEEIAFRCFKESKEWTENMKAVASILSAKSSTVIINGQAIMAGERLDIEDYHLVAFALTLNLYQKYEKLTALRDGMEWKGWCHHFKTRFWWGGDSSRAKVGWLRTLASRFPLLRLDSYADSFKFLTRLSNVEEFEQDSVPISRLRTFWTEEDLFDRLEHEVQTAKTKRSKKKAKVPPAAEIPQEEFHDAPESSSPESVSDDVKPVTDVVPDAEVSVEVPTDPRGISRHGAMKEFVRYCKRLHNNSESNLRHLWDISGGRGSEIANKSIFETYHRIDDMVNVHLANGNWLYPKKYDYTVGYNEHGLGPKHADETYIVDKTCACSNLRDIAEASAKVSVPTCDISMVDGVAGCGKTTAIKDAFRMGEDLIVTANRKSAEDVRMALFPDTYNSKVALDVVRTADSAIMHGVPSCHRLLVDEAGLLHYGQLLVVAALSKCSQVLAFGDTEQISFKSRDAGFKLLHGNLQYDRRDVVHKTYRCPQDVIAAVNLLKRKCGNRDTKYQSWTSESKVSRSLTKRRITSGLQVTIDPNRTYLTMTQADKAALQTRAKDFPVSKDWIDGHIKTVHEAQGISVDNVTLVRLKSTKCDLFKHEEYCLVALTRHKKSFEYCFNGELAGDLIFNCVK
Chain of RdRp of bovine viral diarrhea virus (P19711 3270-3988): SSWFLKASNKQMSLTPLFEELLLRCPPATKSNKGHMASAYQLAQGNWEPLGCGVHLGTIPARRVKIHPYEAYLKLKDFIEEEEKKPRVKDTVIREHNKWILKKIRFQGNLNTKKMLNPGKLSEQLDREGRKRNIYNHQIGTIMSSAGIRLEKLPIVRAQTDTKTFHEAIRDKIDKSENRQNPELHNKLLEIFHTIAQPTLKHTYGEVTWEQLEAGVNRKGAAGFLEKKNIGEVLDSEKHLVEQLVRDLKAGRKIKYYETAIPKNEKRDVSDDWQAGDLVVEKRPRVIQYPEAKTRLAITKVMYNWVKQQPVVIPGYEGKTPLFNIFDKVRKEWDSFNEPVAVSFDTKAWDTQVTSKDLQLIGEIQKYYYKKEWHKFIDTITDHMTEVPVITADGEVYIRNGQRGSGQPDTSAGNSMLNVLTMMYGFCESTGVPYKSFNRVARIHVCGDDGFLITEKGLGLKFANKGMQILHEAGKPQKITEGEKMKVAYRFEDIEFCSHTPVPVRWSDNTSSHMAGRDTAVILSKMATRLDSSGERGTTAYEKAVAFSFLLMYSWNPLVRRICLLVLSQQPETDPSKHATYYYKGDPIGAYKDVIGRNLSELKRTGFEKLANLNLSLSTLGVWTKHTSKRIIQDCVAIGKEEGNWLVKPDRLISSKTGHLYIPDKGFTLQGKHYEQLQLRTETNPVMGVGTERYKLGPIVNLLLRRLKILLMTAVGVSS

## Nc1ncnc2c1ncn2[C@@H]1O[C@H](COP(=O)(O)OP(=O)(O)OP(=O)(O)Oc2ccc([N+](=O)[O-])cc2)[C@@H](O)[C@H]1O [PNP-ATP, Adenosine-5′-(γ-4-nitrophenyl)triphosphate]
[1]; WV-15T template, compared with PNP-GTP results
  trends in plasma reactions: Identical trends
[2]; homothymidylate template
  increase in absorbance at 405 nm: linear increase

## Nc1nc2c(ncn2[C@@H]2O[C@H](COP(=O)(O)OP(=O)(O)OP(=O)(O)Oc3ccc([N+](=O)[O-])cc3)[C@@H](O)[C@H]2O)c(=O)[nH]1 [PNP-GTP, Guanosine-5′-(γ-4-nitrophenyl)triphosphate]
[1]; plasma to 10% final volume, 7 h incubation
  absorbance at 405 nm: did not increase the absorbance at 405 nm
[1]; plasma with alkaline phosphatase, polymerase and noncognate template, 7 hours
  PNP levels: increased PNP levels slightly
[2]
  substrate for the polymerase: suitable substrate
[2]; alkaline phosphatase, WV-15C homodeoxycytidylate template, monitored at 405 nM
  increase in absorbance due to PNP release: linear over a two-hour period
[2]; compared with normal GTP
  RNA synthesis directed when used in place of GTP: levels similar to reactions containing normal GTP
[2]; complete transcription reaction with cognate template, 3 h after start
  absorbance higher than background: > 7 fold
[2]; ten minutes after start, alkaline phosphatase, WV-15C template, 405 nM
  absorbance vs background: absorbance at levels distinctly above background
[3]
  RNA synthesis directed when used in place of GTP: Identical results
[4]
  substrate for the polymerase: suitable substrate
[4]; compared with normal GTP
  RNA synthesis directed when used in place of GTP: levels similar to reactions containing normal GTP
[5]
  PNP release / resistance to phosphatases: did not result in PNP release
